These results are taken from US20130109049A1, “Method of Establishing a Fungal Nail Infection” (NOVABIOTICS LIMITED, priority 2009, published 2013).

In one test the test system is Candida. The test is described as follows: Ex vivo human nail fragment model, treatment of Candida infection. Format: cell-based. The source says: Trichophyton rubrum strain NCPF0118 was obtained from the National Collection of Pathogenic Fungi, Bristol, UK. Clinical isolates of T. rubrum DM2006 1661, T. rubrum DM2006 1358, T. mentagrophytes DM2006 1503, T. mentagrophytes DM2006 1498 were isolated from patients suffering a range of tinea infections and were purchased from Professor Michel Monod (Service de Dermatologie, Université de Lausanne, Switzerland). Clinical isolates of Candida samples were also obtained from patients suffering from Candidal infection.
The procedure was carried out as described for Example 1 above with modifications to the vehicle, and fungal strains used. Each nail was inoculated with 10 μl of a spore suspension of Candida. Following inoculation the nails were treated with 10% (w/v) Novexatin® (NP213) in a vehicle solution of 50% (w/v) PEG 8000 plus 20% (w/v) urea; 10% (w/v) NP339 in a vehicle solution of 50% (w/v) PEG 8000 plus 20% (w/v) urea; 10% (w/v) NP339 in a vehicle solution of water; a control solution of 50% (w/v) PEG 8000 plus 20% (w/v) urea; a control solution of water; a solution of 16 μg/ml Itraconazole® and 1.6% (w/v) DMSO in a vehicle solution of water and a control solution of 1.6% (w/v) DMSO. As for Experiment 1 above, nail fragments were treated daily for up to 28 days. […]
At the end of the treatment period, the nail fragments were placed in sterile 2 ml microcentrifuge tubes containing 450 μl of a suspension broth consisting of Sabouraud's Liquid Medium, pH 5.6, containing approximately 100 mg of sterile zirconia beads (0.5 mm diameter). […] Colonies were counted on dishes that contained between 20 and 200 colonies in total, and the total number of cfu present in each sample was calculated. […] The counts were corrected for the surface area of the nails studied to give cfu/cm^2, transformed to log10 and means and standard errors of the mean were calculated using GraphPad Prism 4 (GraphPad, San Diego, Calif.). […] When very low numbers of colonies were detected, as in Experiment 3, the calculated cfu values are shown in order to indicate trends.

Another test concerns T. rubrum NCPF0118. The test is described as follows: In vitro MIC100 testing. Format: cell-based, Trichophyton rubrum. The following applies: Trichophyton rubrum; versus T. rubrum NCPF0118 in vitro; read-out: concentration equal to 100× the MIC100.
Test [1] concerns Trichophyton rubrum strain NCPF0118. The test is described as follows: Ex vivo human nail fragment model, treatment of established infection (cfu recovered). Conditions: Experiment 5; fluconazole at approximately 100×MIC100; 14 d and 28 d, daily. Format: cell-based. The procedure: For antifungal efficacy studies with human toe nails, a solution of 50% (w/v) PEG 8000 (Sigma-Aldrich; Cat No P2139) was prepared by autoclaving and then diluting with sterile 50% (w/v) urea solution (Sigma-Aldrich; Cat No 51457). This solution was mixed thoroughly by vortexing and allowed to stabilise at 50° C. for up to 2 h. After stabilisation, the temperature was allowed to drop to below 40° C. and a concentrated, filter-sterilised solution of Novexatin® (NP213), dissolved in deionised water was added. Final concentrations of PEG 8000 of 50% (w/v), urea of 0-20% (w/v) and Novexatin® (NP213) of 0-10% (w/v) were used in the experiments described below.
On arrival, the cultures were transferred to a Petri dish containing sterile Sabouraud Dextrose agar (Sigma-Aldrich; Cat No 84088, or equivalent) and grown for up to 7 d at 30° C. The resulting growth was scraped off and re-suspended in Sabouraud's liquid medium (Oxoid; Cat No CM 147, or equivalent) containing […] dimethyl sulfoxide (DMSO) as cryoprotectant to create a culture stock. The fungus was stored in 0.5 ml aliquots in 2 ml screw-capped polypropylene vials (Cryovials) at −80° C. Seven days prior to experimental use, 50 μl of the culture stock was used to inoculate a slope of Potato Dextrose agar (Merck; Cat No VM556130 609, or equivalent), which was incubated at 30° C. for up to 7 d. The surface of the resulting growth was gently perturbed in 3 ml of sterile distilled/deionised water. After filtration through 2 layers of sterile surgical gauze to remove debris and larger clumps of biomass, the absorbance of the resultant spore suspension was measured at 530 nm, then adjusted to the 0.5 MacFarland standard (OD approx. 0.15)^2.
Human toe nails were obtained from a podiatrist in Aberdeen following a successful application to the Grampian Local Research Ethics Committee. […] Large toe nails were cut into 4 pieces, each approximately 1 cm^2 in area, using nail clippers. Nails of normal thickness (≦2 mm) were chosen. The 4 fragments cut from each single nail were placed in quadrants marked on Petri-dishes containing phosphate buffered saline rendered solid with 1.2% (w/v) Technical Agar No. 3 (Oxoid; Cat No LP0013, or equivalent), subsequently referred to as PBS agar. The nail fragments were of irregular shape, so to ensure that each nail received the appropriate amount of the treatment solutions, the surface area was measured by photographing the nails over graph paper and determining the number of 1mm^2 squares covered by each nail. The thickness of the nails was measured with a micrometer and nails distributed among treatment groups, to avoid nail thickness providing an additional experimental variable.
Twenty four nail fragments from 6 whole large toenails were each inoculated with 10 μl of a spore suspension of T. rubrum NCPF0118 which was prepared as described above. The inoculum was applied to the ventral side of the nail (i.e. the side next to the skin in situ). The nails were incubated for 7 d at 30° C. to allow the fungus to infect the nail tissue. After this pre-incubation period, 12 of the fragments were assigned to each of 2 different treatment protocols, involving daily treatment with 2 different vehicle solutions, each containing a control and 3 different concentrations of Novexatin® (NP213). These vehicle solutions were: 50% (w/v) PEG 8000, and 50% (w/v) PEG 8000 plus 20% (w/v) urea. The concentrations of Novexatin® (NP213) studied were 0%, 1%, 5% and 10% (w/v). The solutions were applied at a volume of 10 μl/cm^2, corrected for the surface area of the different nail fragments as described above. The applied solution was spread over the dorsal side of the nail, to mimic the intended clinical treatment and the ventral side of the nail rested on the agar surface. Each time the nails were treated, they were transferred to a new sterile Petri dish containing PBS agar to minimise any build-up of fungal growth on the agar. Nail fragments were treated daily for 28 days. […]

Converted amounts (≈) assume the structure as drawn. Non-standard residues stand in square brackets, D forms with d. No end group written: not given here.

Consider `CN(C/C=C/C#CC(C)(C)C)Cc1cccc2ccccc12` [Terbinafine®, [(2E)-6,6-dimethylhept-2-en-4-yn-1-yl](methyl)(naphthalen-1-ylmethyl)amine, reference compound], for which the outcome of treatment in the test with Candida (Experiment 7, 10 μg/ml, 14 d and 28 d) is “unsuccessful”.
Take `OC(Cn1cncn1)(Cn1cncn1)c1ccc(F)cc1F` [fluconazole, 2-(2,4-difluorophenyl)-1,3-bis(1H-1,2,4-triazol-1-yl)propan-2-ol, reference compound]: the MIC in the test on T. rubrum NCPF0118 came out at 360 µg/mL (≈ 1180 µM). In addition, in test [1], the outcome of treatment was “unsuccessful”.
Regarding “dRdRdRdRdRdRdRdRdRdRdRdRdR ([dR][dR][dR][dR][dR][dR][dR][dR][dR][dR][dR][dR][dR]) [NP339]”, the “recoverable fungal growth after treatment” value in the test with Candida (Experiments 6 and 7, 10% (w/v), 14 d or 28 d, daily) was “no recoverable fungal growth”.
